Consider two substances from US20210290680A1, “METHODS AND COMPOSITIONS FOR MODULATING CELLULAR AGING” (Dorian Therapeutics, Inc., priority 2019, published 2021).

Holding throughout (format): cell-based, human
In one series the test system is CDKN2A. Put plainly: qPCR of senescence marker CDKN2A. As to conditions: CD19.CAR, day 15, n=4. The text has this:
Primary T cells were activated as described (Example 3), transduced with a lentivirus encoding for either a CD19.CAR or a GD2.CAR co-expressing shUSP16 #1, shUSP16 #2 or a scrambled shRNA (Control). Fifteen days post-activation, T cells were collected and qPCR performed. TaqMan probes detecting CDKN1A, CDKN2A (FIGS. 26A and 26B) (fold change GD2.CAR (n=4): CDKN1A Control vs shUSP #1: 0.4360, p<0.0001, and Control vs shUSP16 #2: 3.036, p=0.004 respectively. Fold change CD19.CAR (n=4): CDKN2a, CDKN1A Control vs shUSP #1: 0.6906, p=0.0026; 0.7228, p=0.0297 and Control vs shUSP16 #2: 0.8385, p=0.2325; 0.7017, p=0.0021), TCF7, LEF1, and Axin-2 (FIGS. 27A and B) were analyzed in GD2.CAR and CD19.CAR-expressing cells, respectively. ACTB was used as internal control. (GD2.CAR (n=4) TCF7, LEF1 and Axin-2: Control vs shUSP #1: 1.914 p=0.0512; 1.795 p=0.0323; 3.269 p=0.15 and Control vs shUSP16 #2: 1.284 p=0.0494; 1.718 p=0.0586; 2.035p=0.235, respectively. Fold change CD19.CAR (n=4): TCF7, LEF1 and Axin-2: Control vs shUSP #1: 1.528, p=0.0277; 1.82, p=0.0449; 1.998, p=0.031 and Control vs shUSP16 #2: 1.18, p=0.2002; 1.579, p=0.0632; 1.261, p=0.2382). […]
On the technique in general: Quantitative PCR measures a nucleic acid by following its amplification.

A further series deals with primary T cells. Description: T cell expansion / proliferation by Trypan Blue cell counts. The conditions noted are these: day 15 post-activation. On the procedure:
On Day 0, buffycoats were obtained by a clinical facility, and PBMCs were isolated by density centrifugation using Ficoll™. CD3 enrichment was performed using magnetic beads, PanT cell isolation from Myltenyi Biotec. The T cells were activated with aCD^3/aCD28 Dynabeads (3:1 ratio).
On Day 2, a first round of transduction was performed with lentivirus. On Day 3, a second round of transduction was performed with lentivirus.
On Day 6, the beads were removed. On Day 6-8, Flow cytometry sorting was performed with a FACSAria II (BD).
The cells were cultured in RPMI, 10% FBS, penicillin-streptomycin, and 100IU of IL-2. Cells were plated at a density of 0.3×10^6 cells/ml until day 15, then 0.5×10^6 cells/ml and after day 25 at 1×10^6 cells/ml.
A short hairpin RNA (shRNA) directed against USP16 (shUSP16) was purchased from Dharmacon. […] Between 0.15 and 0.5×10^6 cells were plated post-sorting with a purity higher than 90% and counted every 2-4 days by Trypan Blue exclusion using Vi-CELL XR cell counter (Beckman Coulter). Proliferation was measured as expansion ratio compared to the initial cell seeding. […]
A new set of shRNAs were cloned into the pSIH backbone, where the shRNA expression is driven by the H1 promoter. […] Proliferation was measured as fold increased compared to shControl at day 15 post-activation. […]

A further series relates to LEF1. Description: qPCR of WNT pathway regulator LEF1. The conditions noted are these: for LEF1 expression, fold change vs Control: CD19.CAR; for LEF1 expression, fold change vs Control / LEF1 expression vs Control: day 15, n=4; for LEF1 expression vs Control: GD2.CAR. The text has this: Primary T cells were activated as described (Example 3), transduced with a lentivirus encoding either a shUSP16 #1, shUSP16 #2 or a non-targeting shRNA (shCtrl) and cells were selected with puromycin at day 6. At day 15 cell were collected and analyzed by qPCR for the expression of LEF1 (FIG. 16A) and TCF7 (FIG. 16B), downstream regulators of the WNT pathway. At day 20, cells were stained for CD4-PE, CD8-BV510, CD62L-Allophycocyanin and CD45RA-APC-Cy7 (Biolegend). Stem cell memory T cells (Tscm) were identified as Sytox^− GFP^+CD45RA^+CD62L^+, central memory T cells (Tcm) as Sytox^−GFP^+CD45RA^−CD62L^+, effector memory T cells (Tem) as Sytox^−GFP^+CD45RA^−CD62L^−, and terminal effector T cell (Teff) as Sytox^−GFP^+CD45RA^+CD62L^− (FIG. 17A). Cells were gated on the CD8 population. The specific increase of Tscm was shown as phenotype ratio (FIG. 17B).
Primary T cells were activated as described (Example 3), transduced with a lentivirus encoding for either a CD19.CAR or a GD2.CAR co-expressing shUSP16 #1, shUSP16 #2 or a scrambled shRNA (Control). Fifteen days post-activation, T cells were collected and qPCR performed. TaqMan probes detecting CDKN1A, CDKN2A (FIGS. 26A and 26B) (fold change GD2.CAR (n=4): CDKN1A Control vs shUSP #1: 0.4360, p<0.0001, and Control vs shUSP16 #2: 3.036, p=0.004 respectively. Fold change CD19.CAR (n=4): CDKN2a, CDKN1A Control vs shUSP #1: 0.6906, p=0.0026; 0.7228, p=0.0297 and Control vs shUSP16 #2: 0.8385, p=0.2325; 0.7017, p=0.0021), TCF7, LEF1, and Axin-2 (FIGS. 27A and B) were analyzed in GD2.CAR and CD19.CAR-expressing cells, respectively. ACTB was used as internal control. (GD2.CAR (n=4) TCF7, LEF1 and Axin-2: Control vs shUSP #1: 1.914 p=0.0512; 1.795 p=0.0323; 3.269 p=0.15 and Control vs shUSP16 #2: 1.284 p=0.0494; 1.718 p=0.0586; 2.035p=0.235, respectively. Fold change CD19.CAR (n=4): TCF7, LEF1 and Axin-2: Control vs shUSP #1: 1.528, p=0.0277; 1.82, p=0.0449; 1.998, p=0.031 and Control vs shUSP16 #2: 1.18, p=0.2002; 1.579, p=0.0632; 1.261, p=0.2382). USP16 downregulation in CAR-T cells results in a decreased expression of senescence markers and an increase in the expression of genes associated with the activation/increased signaling of the WNT pathway, indicating its importance in delaying cellular senescence and increasing self-renewal.

As for “shUSP16 #1: shRNA targeting USP16, 5′-GACTGTAAGACTGACAATAAA-3′ (SEQ ID NO: 8), pSIH backbone or co-expressed in CAR plasmid”, the “CDKN2a expression, fold change vs Control” value in the series on CDKN2A worked out at 0.6906. In addition, the “proliferation, fold increased compared to shControl” value in the series on primary T cells is given as “about 1.31 folds”. For the same substance, in the series with LEF1, the “LEF1 expression, fold change vs Control” value stood at 1.82 and the “LEF1 expression vs Control” value came to 1.795. In the series on LEF1 (primary T cells, day 15), the “LEF1 expression, fold increase over Control” value is recorded as 1.650.

As to “shUSP16 #2: shRNA targeting USP16, 5′-TATATCAGTTCACCCGTAAT-3′ (SEQ ID NO: 9), pSIH backbone or co-expressed in CAR plasmid”, the “CDKN2a expression, fold change vs Control” value in the series on CDKN2A amounted to 0.8385. For the same substance, the “proliferation, fold increased compared to shControl” value in the series on primary T cells is given as about 2.33 folds. Further, in the series on LEF1, the “LEF1 expression, fold change vs Control” value amounted to 1.579 and the “LEF1 expression vs Control” value was determined as 1.718.
